We go through 19 compounds from patent US12538701B2, “Compound and organic light emitting device comprising the same” (LG Chem, Ltd., priority 2020, dated 2026).

A short description of this series: Solubility experiment in cyclohexanone. In kind it is physicochemical. The conditions noted are these: normal temperature/pressure, whether 0.1 wt % or more was dissolved. The method, then:
In order to confirm the solubility in the solvent used in the solution process of the compounds prepared in the Preparation Examples and the comparative compounds, each of them was dissolved in the solvent cyclohexanone (CHON) under normal temperature/pressure conditions, and it was confirmed whether 0.1 wt % or more was dissolved.
Consider `CC1(C)c2cc(-c3cc4ccccc4o3)ccc2-c2ccc(N(c3ccccc3)c3ccc4c5c6ccc7c(c6ccc5n(-c5ccccc5)c4c3)c3ccc(N(c4ccccc4)c4ccc5c(c4)C(C)(C)c4cc(-c6cc8ccccc8o6)ccc4-5)cc3n7-c3ccccc3)cc21` [Comparative Compound I, reference compound], for which the “Solubility, Solvent CHON” value is recorded as “X (0.1 wt. % or more insoluble)”.

For `Cc1cccc(N(c2ccc3c(ccc4c5c(ccc6c7ccc8cc(N(c9cccc(C)c9)c9cccc%10c9oc9ccccc9%10)ccc8c7n(-c7ccccc7)c65)n(-c5ccccc5)c34)c2)c2cccc3c2oc2ccccc23)c1` [Compound 1], the “Solubility, Solvent CHON” value is “◯ (0.1 wt. % or more soluble)”. The value for `Cc1cccc(N(c2ccc3c(ccc4c5cc6c7ccc8cc(N(c9cccc(C)c9)c9cccc%10c9oc9ccccc9%10)ccc8c7n(-c7ccccc7)c6cc5n(-c5ccccc5)c34)c2)c2cccc3c2oc2ccccc23)c1` [Compound 2] was “◯ (0.1 wt. % or more soluble)”.

With `Cc1cccc(N(c2ccc3c(ccc4c5cc6c(cc5n(-c5ccccc5)c34)c3ccc4cc(N(c5cccc(C)c5)c5cccc7c5oc5ccccc57)ccc4c3n6-c3ccccc3)c2)c2cccc3c2oc2ccccc23)c1` [Compound 3], the “Solubility, Solvent CHON” value is given as “◯ (0.1 wt. % or more soluble)”. Take `Cc1cccc(N(c2ccc3c(ccc4c5c6c7ccc8cc(N(c9cccc(C)c9)c9cccc%10c9oc9ccccc9%10)ccc8c7n(-c7ccccc7)c6ccc5n(-c5ccccc5)c34)c2)c2cccc3c2oc2ccccc23)c1` [Compound 4]: the “Solubility, Solvent CHON” value is “◯ (0.1 wt. % or more soluble)”.

With `Cc1cccc(N(c2ccc3c(ccc4c5ccc6c7ccc8cc(N(c9cccc(C)c9)c9cccc%10c9oc9ccccc9%10)ccc8c7n(-c7ccccc7)c6c5n(-c5ccccc5)c34)c2)c2cccc3c2oc2ccccc23)c1` [Compound 5], the “Solubility, Solvent CHON” value was “◯ (0.1 wt. % or more soluble)”. The value for `c1ccc(-n2c3ccccc3c3cc(-c4ccc(N(c5ccc6ccccc6c5)c5ccc6c(ccc7c8c(ccc9c%10ccc%11cc(N(c%12ccc(-c%13ccc%14c(c%13)c%13ccccc%13n%14-c%13ccccc%13)cc%12)c%12ccc%13ccccc%13c%12)ccc%11c%10n(-c%10ccccc%10)c98)n(-c8ccccc8)c67)c5)cc4)ccc32)cc1` [Compound 6] was “◯ (0.1 wt. % or more soluble)”; that for `c1ccc(-n2c3ccccc3c3cc(-c4ccc(N(c5ccc6ccccc6c5)c5ccc6c(ccc7c8cc9c%10ccc%11cc(N(c%12ccc(-c%13ccc%14c(c%13)c%13ccccc%13n%14-c%13ccccc%13)cc%12)c%12ccc%13ccccc%13c%12)ccc%11c%10n(-c%10ccccc%10)c9cc8n(-c8ccccc8)c67)c5)cc4)ccc32)cc1` [Compound 7] was “◯ (0.1 wt. % or more soluble)”.

With `c1ccc(-n2c3ccccc3c3cc(-c4ccc(N(c5ccc6ccccc6c5)c5ccc6c(ccc7c8cc9c(cc8n(-c8ccccc8)c67)c6ccc7cc(N(c8ccc(-c%10ccc%11c(c%10)c%10ccccc%10n%11-c%10ccccc%10)cc8)c8ccc%10ccccc%10c8)ccc7c6n9-c6ccccc6)c5)cc4)ccc32)cc1` [Compound 8], the “Solubility, Solvent CHON” value is given as “◯ (0.1 wt. % or more soluble)”.

In the case of `c1ccc(-n2c3ccccc3c3cc(-c4ccc(N(c5ccc6ccccc6c5)c5ccc6c(ccc7c8c9c%10ccc%11cc(N(c%12ccc(-c%13ccc%14c(c%13)c%13ccccc%13n%14-c%13ccccc%13)cc%12)c%12ccc%13ccccc%13c%12)ccc%11c%10n(-c%10ccccc%10)c9ccc8n(-c8ccccc8)c67)c5)cc4)ccc32)cc1` [Compound 9], the “Solubility, Solvent CHON” value is “◯ (0.1 wt. % or more soluble)”.

On to `c1ccc(-n2c3ccccc3c3cc(-c4ccc(N(c5ccc6ccccc6c5)c5ccc6c(ccc7c8ccc9c%10ccc%11cc(N(c%12ccc(-c%13ccc%14c(c%13)c%13ccccc%13n%14-c%13ccccc%13)cc%12)c%12ccc%13ccccc%13c%12)ccc%11c%10n(-c%10ccccc%10)c9c8n(-c8ccccc8)c67)c5)cc4)ccc32)cc1` [Compound 10], for which the “Solubility, Solvent CHON” value is “◯ (0.1 wt. % or more soluble)”. As to `c1ccc(N(c2ccc3cc(-c4cc5ccccc5o4)ccc3c2)c2ccc3c(ccc4c5c(ccc6c7ccc8cc(N(c9ccccc9)c9ccc%10cc(-c%11cc%12ccccc%12o%11)ccc%10c9)ccc8c7n(-c7ccccc7)c65)n(-c5ccccc5)c34)c2)cc1` [Compound 11], the “Solubility, Solvent CHON” value is recorded as “◯ (0.1 wt. % or more soluble)”. The value for `c1ccc(N(c2ccc3cc(-c4cc5ccccc5o4)ccc3c2)c2ccc3c(ccc4c5cc6c7ccc8cc(N(c9ccccc9)c9ccc%10cc(-c%11cc%12ccccc%12o%11)ccc%10c9)ccc8c7n(-c7ccccc7)c6cc5n(-c5ccccc5)c34)c2)cc1` [Compound 12] was “◯ (0.1 wt. % or more soluble)”. The value for `c1ccc(N(c2ccc3cc(-c4cc5ccccc5o4)ccc3c2)c2ccc3c(ccc4c5cc6c(cc5n(-c5ccccc5)c34)c3ccc4cc(N(c5ccccc5)c5ccc7cc(-c8cc9ccccc9o8)ccc7c5)ccc4c3n6-c3ccccc3)c2)cc1` [Compound 13] was “◯ (0.1 wt. % or more soluble)”; that for `c1ccc(N(c2ccc3cc(-c4cc5ccccc5o4)ccc3c2)c2ccc3c(ccc4c5c6c7ccc8cc(N(c9ccccc9)c9ccc%10cc(-c%11cc%12ccccc%12o%11)ccc%10c9)ccc8c7n(-c7ccccc7)c6ccc5n(-c5ccccc5)c34)c2)cc1` [Compound 14] was “◯ (0.1 wt. % or more soluble)”; that for `c1ccc(N(c2ccc3cc(-c4cc5ccccc5o4)ccc3c2)c2ccc3c(ccc4c5ccc6c7ccc8cc(N(c9ccccc9)c9ccc%10cc(-c%11cc%12ccccc%12o%11)ccc%10c9)ccc8c7n(-c7ccccc7)c6c5n(-c5ccccc5)c34)c2)cc1` [Compound 15] was “◯ (0.1 wt. % or more soluble)”.

`CC1(C)c2ccccc2-c2ccc(-n3c4cc5c6ccc7cc(N(c8ccccc8)c8ccc9cc(-c%10cc%11ccccc%11o%10)ccc9c8)ccc7c6n(-c6ccc7c(c6)C(C)(C)c6ccccc6-7)c5cc4c4ccc5cc(N(c6ccccc6)c6ccc7cc(-c8cc9ccccc9o8)ccc7c6)ccc5c43)cc21` [Compound 16]: the “Solubility, Solvent CHON” value is on record as “◯ (0.1 wt. % or more soluble)”.

As to `[2H]c1c([2H])c([2H])c(-n2c3cc4c5ccc6cc(N(c7ccccc7)c7ccc8cc(-c9cc%10ccccc%10o9)ccc8c7)ccc6c5n(-c5c([2H])c([2H])c([2H])c([2H])c5[2H])c4cc3c3ccc4cc(N(c5ccccc5)c5ccc6cc(-c7cc8ccccc8o7)ccc6c5)ccc4c32)c([2H])c1[2H]` [Compound 17], the “Solubility, Solvent CHON” value was “◯ (0.1 wt. % or more soluble)”. To `CC(C)(C)c1ccc(N(c2ccc3cc(-c4cc5ccccc5o4)ccc3c2)c2ccc3c(ccc4c5cc6c(cc5n(-c5ccc(C(C)(C)C)cc5)c34)c3ccc4cc(N(c5ccc(C(C)(C)C)cc5)c5ccc7cc(-c8cc9ccccc9o8)ccc7c5)ccc4c3n6-c3ccc(C(C)(C)C)cc3)c2)cc1` [Compound 18] belongs “◯ (0.1 wt. % or more soluble)”.
